In patent US12509457B2, “Bicyclic nitrogen containing heterocycles as inhibitors of salt-induced kinase SIK2” (priority 2019, dated 2025) one finds Ki data, which are given here for one molecule.

The structures appear in SMILES notation. A value given as a limit tells only on which side of the number the result lay.

Common to all, as to type: biochemical
The target of one test is SIK2 (Homo sapiens, UniProt Q9H0K1). In words: SIK2 kinase assay, IMAP fluorescence polarization. To be noted: 50 or 100 μM ATP; average; read-out: SIK2-AVERAGE Ki.
Another test concerns the target SIK1 (Homo sapiens, UniProt P57059). In words: SIK1 kinase assay, IMAP fluorescence polarization. To be noted: 50 or 100 μM ATP; average; read-out: SIK1-AVERAGE Ki.
In the next test the target is Abl (Homo sapiens, UniProt P00519). The experiment in a line: Abl kinase assay, IMAP fluorescence polarization. To be noted: 50 or 100 μM ATP; average; read-out: Abl-AVERAGE Ki. (Fluorescence polarisation rises when a labelled molecule tumbles more slowly, as on binding a larger partner.)
Another test has as its target SIK3 (Homo sapiens, UniProt Q9Y2K2). In words: SIK3 kinase assay, IMAP fluorescence polarization. Particulars: 50 or 100 μM ATP; average; read-out: SIK3-AVERAGE Ki.
In the next test the target is Src (Homo sapiens, UniProt P12931). The experiment in a line: Src kinase assay, IMAP fluorescence polarization. Particulars: 50 or 100 μM ATP; average; read-out: Src-AVERAGE Ki.
The target of the next test is EPHA2 (Homo sapiens, UniProt P29317). In words: EPHA2 kinase assay, IMAP fluorescence polarization. To be noted: 50 or 100 μM ATP; average.
Sequence of EPHA2 (P29317 24-976): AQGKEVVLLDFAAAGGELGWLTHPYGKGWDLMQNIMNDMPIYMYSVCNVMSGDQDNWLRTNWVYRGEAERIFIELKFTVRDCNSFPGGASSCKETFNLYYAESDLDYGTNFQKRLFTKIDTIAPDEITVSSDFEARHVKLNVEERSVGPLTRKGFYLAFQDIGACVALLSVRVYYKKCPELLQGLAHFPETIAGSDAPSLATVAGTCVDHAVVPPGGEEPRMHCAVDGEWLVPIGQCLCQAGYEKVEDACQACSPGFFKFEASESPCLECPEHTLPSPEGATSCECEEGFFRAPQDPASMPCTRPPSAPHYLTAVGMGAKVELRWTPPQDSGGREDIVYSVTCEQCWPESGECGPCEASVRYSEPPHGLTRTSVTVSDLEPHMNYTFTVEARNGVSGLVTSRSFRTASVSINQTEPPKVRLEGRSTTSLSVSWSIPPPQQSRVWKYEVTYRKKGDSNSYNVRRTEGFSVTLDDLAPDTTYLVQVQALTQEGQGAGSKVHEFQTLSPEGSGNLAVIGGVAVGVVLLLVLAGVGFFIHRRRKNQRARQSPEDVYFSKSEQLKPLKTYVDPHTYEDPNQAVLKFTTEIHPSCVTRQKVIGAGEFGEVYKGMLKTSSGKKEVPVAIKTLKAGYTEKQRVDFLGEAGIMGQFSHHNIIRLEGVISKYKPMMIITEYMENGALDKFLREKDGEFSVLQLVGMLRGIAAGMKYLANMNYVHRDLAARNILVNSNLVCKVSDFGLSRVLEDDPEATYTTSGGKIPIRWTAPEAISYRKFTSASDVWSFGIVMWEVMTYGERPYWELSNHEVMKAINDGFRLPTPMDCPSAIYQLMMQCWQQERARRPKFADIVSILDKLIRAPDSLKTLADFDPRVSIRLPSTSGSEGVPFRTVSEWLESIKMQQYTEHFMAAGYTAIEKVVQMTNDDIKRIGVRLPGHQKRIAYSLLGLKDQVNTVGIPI

Sequence of SIK2 (Q9H0K1 whole entry): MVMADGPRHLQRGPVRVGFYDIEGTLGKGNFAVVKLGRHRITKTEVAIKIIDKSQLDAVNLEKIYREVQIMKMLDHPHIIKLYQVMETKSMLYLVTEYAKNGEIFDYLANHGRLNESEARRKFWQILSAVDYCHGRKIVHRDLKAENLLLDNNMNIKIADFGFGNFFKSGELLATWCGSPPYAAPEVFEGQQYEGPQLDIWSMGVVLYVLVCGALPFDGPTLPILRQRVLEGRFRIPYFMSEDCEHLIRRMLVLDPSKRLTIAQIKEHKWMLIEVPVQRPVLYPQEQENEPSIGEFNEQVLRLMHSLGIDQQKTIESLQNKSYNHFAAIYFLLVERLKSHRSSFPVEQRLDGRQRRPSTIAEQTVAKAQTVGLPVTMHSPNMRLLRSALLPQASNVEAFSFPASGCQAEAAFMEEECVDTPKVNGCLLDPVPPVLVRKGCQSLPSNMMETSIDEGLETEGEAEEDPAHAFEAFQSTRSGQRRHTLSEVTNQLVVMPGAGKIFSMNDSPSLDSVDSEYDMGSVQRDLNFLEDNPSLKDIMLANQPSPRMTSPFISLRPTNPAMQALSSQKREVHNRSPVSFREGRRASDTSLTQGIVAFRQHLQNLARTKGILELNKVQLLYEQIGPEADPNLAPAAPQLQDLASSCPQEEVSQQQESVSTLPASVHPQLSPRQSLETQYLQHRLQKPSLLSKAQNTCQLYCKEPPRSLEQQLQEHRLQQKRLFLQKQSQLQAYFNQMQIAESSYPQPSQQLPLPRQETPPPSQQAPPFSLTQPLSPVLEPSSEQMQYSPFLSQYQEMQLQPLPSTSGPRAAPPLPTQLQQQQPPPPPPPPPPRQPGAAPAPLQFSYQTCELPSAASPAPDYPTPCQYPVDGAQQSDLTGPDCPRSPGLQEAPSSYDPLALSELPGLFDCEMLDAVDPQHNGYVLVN
Sequence of SIK3 (Q9Y2K2 whole entry): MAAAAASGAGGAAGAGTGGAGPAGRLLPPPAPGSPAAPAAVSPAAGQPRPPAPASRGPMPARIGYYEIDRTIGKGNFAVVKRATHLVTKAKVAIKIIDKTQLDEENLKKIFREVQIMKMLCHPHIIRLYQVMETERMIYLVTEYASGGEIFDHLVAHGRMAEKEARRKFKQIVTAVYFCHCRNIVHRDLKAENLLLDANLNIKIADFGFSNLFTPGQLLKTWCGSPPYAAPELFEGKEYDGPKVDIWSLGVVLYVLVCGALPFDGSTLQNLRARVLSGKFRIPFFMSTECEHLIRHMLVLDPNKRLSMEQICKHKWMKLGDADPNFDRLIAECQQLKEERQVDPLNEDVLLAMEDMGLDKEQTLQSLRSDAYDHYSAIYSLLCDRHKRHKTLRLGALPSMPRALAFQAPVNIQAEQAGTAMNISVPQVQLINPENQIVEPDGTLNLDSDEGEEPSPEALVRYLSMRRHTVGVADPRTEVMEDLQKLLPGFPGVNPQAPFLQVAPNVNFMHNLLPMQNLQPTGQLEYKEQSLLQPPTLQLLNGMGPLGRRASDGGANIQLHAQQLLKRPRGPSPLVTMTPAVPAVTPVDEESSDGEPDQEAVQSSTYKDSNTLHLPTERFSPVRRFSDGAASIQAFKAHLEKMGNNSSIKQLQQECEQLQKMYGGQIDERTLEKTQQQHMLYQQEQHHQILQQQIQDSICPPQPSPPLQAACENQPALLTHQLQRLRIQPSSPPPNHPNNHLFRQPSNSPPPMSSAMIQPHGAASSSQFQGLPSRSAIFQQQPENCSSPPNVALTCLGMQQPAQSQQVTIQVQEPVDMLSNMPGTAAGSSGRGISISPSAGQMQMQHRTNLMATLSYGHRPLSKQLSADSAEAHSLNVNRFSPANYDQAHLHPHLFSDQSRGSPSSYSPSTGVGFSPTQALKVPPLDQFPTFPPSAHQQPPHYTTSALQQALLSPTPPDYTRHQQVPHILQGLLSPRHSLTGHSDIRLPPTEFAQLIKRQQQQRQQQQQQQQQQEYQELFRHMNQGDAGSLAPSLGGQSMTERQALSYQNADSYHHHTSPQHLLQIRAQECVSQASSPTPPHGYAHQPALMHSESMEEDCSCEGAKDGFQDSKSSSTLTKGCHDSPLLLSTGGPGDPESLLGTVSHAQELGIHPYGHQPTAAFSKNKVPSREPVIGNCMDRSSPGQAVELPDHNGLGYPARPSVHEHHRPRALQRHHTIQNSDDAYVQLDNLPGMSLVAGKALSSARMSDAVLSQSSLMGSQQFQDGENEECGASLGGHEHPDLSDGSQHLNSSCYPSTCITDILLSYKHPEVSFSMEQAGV
Sequence of Src (P12931 whole entry): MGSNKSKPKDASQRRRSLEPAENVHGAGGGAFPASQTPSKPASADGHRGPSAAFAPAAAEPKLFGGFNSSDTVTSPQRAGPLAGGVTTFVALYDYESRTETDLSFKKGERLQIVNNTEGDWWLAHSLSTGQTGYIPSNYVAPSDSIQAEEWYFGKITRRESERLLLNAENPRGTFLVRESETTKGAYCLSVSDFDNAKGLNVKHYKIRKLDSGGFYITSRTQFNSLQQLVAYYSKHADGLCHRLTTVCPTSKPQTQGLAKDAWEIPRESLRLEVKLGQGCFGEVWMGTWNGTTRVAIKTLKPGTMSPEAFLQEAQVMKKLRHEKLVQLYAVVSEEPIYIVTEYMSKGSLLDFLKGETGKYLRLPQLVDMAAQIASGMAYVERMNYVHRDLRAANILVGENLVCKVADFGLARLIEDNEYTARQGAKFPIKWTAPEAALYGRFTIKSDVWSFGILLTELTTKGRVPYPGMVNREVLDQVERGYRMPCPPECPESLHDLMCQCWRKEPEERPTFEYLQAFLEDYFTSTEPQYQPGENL
Sequence of SIK1 (P57059 whole entry): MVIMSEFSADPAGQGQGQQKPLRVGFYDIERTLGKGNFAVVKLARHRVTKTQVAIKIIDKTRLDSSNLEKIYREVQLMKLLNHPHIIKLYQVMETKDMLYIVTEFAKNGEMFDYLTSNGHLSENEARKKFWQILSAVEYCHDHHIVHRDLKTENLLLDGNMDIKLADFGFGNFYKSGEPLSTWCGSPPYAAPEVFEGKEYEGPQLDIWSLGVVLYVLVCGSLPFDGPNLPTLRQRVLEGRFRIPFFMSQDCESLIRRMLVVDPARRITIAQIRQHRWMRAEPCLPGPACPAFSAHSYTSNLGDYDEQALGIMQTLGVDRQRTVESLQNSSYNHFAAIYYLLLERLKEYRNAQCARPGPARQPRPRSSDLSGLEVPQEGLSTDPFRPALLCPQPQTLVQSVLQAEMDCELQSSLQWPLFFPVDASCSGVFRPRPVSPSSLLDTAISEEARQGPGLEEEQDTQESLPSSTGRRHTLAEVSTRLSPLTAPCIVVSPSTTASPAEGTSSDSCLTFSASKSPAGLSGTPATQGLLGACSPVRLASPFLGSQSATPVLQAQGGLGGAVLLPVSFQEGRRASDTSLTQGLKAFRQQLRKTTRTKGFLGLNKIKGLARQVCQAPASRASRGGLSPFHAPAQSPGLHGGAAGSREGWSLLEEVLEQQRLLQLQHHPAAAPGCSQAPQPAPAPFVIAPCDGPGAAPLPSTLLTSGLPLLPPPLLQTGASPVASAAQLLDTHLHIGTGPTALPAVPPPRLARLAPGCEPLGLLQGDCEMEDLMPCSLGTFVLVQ

For orientation: Ki means a measure of affinity in units of concentration, obtained from inhibition or displacement. `CNc1cc2c(cn1)CN(c1c(C)cccc1F)C(=O)N2C1CN(C)C1` [Example 10, 3-(2-Fluoro-6-methyl-phenyl)-7-(methylamino)-1-(1-methylazetidin-3-yl)-4H-pyrido[4,3-d]pyrimidin-2-one]: the Ki is 14.8 nM on SIK2; 66.9 nM at SIK1; over 1000 nM at Abl; 177 nM on SIK3; over 1000 nM on Src; over 1000 nM at EPHA2.
